Patent US10835500B2, “Medicament for accelerated wound healing” (Symrise AG, priority 2014, dated 2020)

Experiments:
HaCaT cells = assay: Proliferation assay (CyQuant) on HaCaT cells; format: cell-based, human
Description: It was next investigated whether Sandalore® has an effect on the growth behavior of skin cells. For this purpose, HaCaT cells were again stimulated for five days with Sandalore®, and cell count determination was carried out by means of a proliferation assay. […] In order to verify that this increase in proliferation is induced via activation of OR2AT4, HaCaT cells were transfected with siRNA or scRNA respectively, and the proliferation assay was repeated.
In addition, the cell count was determined after costimulation (1:1) by Sandalore® (500 μM) with the antagonists Oxyphenylon (500 μM) or Phenirat (500 μM). […] The effect was significant for Oxyphenylon.
Effect of Sandalore® long-term stimulation on morphology, growth, and migration processes in keratinocytes. A) Phase contrast image and PI stains of HaCaT cells and primary keratinocytes after stimulation with Sandalore® (500 μM) or 0.1% DMSO (control) for five days. On positive PI staining, the cell nuclei are stained red. Scale: 100 μm. B) Evaluation of the proliferation assay carried out with the CyQuant Cell Proliferation Kit on HaCaT cells after 5-day stimulation with 500 μM of Sandalore® or 0.1% DMSO (control). For the RNA interference experiments, the cells were transfected with siRNA or scRNA on the day before Sandalore® stimulation. Shown is the mean cell count including standard error relative to untreated cells. Mann-Whitney U test; n=3 experiments. *: p<0.05; **: p<0.01. S: Sandalore. C) Agarose assay for determination of migration of HaCaT cells. Top: Transmitted light images of HaCaT cells that have migrated in the direction of Sandalore® (500 μM) or 0.1% DMSO. The growth margin of the cells was surrounded in black. Scale: 250 μm. Bottom: Evaluation of the proliferation assay. The longest path traversed by the cells and the overgrown area were measured and compared to the control (0.1% DMSO). Paired two-sided T test. Mean values including standard error; n=4 experiments. **: p<0.01; ***: p<0.001.

[1] = target: T1, recombinantly expressed OR2AT4 (Homo sapiens, UniProt A6NND4); assay: CRE dual luciferase assay in OR2AT4-transfected Hana3A cells; format: cell-based; settings: for activation of the recombinant receptor in the CRE luciferase assay: 4-hour incubation, OR2AT4 expressed in Hana3A cells; for concentration required to produce a significant effect at the receptor: CRE luciferase assay
T1 construct: expressed in transfected cells; host or cells: Hana3A cells, transient transfection with pcDNA3-OR2AT4 by the calcium phosphate method
T1 sequence (A6NND4 1-320): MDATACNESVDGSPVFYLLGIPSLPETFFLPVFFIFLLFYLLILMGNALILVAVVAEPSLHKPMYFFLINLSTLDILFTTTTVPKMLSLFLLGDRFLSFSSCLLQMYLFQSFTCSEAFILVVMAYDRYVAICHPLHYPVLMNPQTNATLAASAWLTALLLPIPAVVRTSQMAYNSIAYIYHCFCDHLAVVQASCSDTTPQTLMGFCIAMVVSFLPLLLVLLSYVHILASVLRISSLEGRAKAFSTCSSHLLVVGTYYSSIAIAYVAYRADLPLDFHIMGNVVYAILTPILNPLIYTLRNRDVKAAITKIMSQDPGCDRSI
Description: In order to verify calcium imaging results and investigate dose-dependent activation of OR2AT4, a further method of deorphanization based on a dual luciferase system was used. In this method, in addition to the OR, two luciferases were introduced into the Hana3A cells. When the expressed OR is activated by an odorant and cAMP is formed in the further course of the signal cascade, this initiates expression of firefly luciferase via CRE (cAMP response elements). The second luciferase, Renilla luciferase, serves as a control for transfection and vitality of the cells. By calculating the two luciferase values, the activation capacity of an OR by an odorant can be determined. In the CRE luciferase assay, the odorant remains on the cells for hours in order to ensure that the luciferase is expressed. Because of the longer incubation time of the odorants and the possibility of activating more receptors in a 96-well format, this method is more sensitive than calcium imaging and is well-suited for establishing dose-response relationships.
For Brahmanol, however, a higher concentration (≥75 μM) was required than for Sandalore® (≥25 μM) in order to produce a significant effect at the receptor (FIG. 3c).
Determination of receptive field of recombinantly expressed OR2AT4. […] As a control, untransfected Hana3A cells were simulated with Sandalore®. 100 μM of ATP was used at the end of each measurement as a positive control stimulus. […] The mean response rate including standard error of the cells is shown relative to the Ringer control. […] Isobornyl.: isobornyl cyclohexanol; S. öl: sandalwood oil. Kruskal-Wallis test with multiple comparison. *: p<0.05. […] Significance was determined between Hana3A cells transfected with OR2AT4-pcDNA3 and pcDNA3 without an insert. The dots show mean normalized luciferase-activity including standard error. Mann-Whitney U test; n=3 experiments. *: p<0.05; **: p<0.01; ***: p<0.001.

SMILES	effect of antagonist alone on proliferation (HaCaT cells; antagonist alone)	proliferation after costimulation with Sandalore (HaCaT cells; costimulation 1:1, Sandalore 500 μM + antagonist 500 μM)	activation of the recombinant receptor in the CRE luciferase assay [1]	concentration required to produce a significant effect at the receptor [1]	increase of proliferation compared to the control (0.1% DMSO) (HaCaT cells; 5-day stimulation, 500 μM)
CC(=O)CCc1ccc(O)cc1 [Oxyphenylon]	no significant effect	proliferation was reduced. The effect was significant			
CC1=CCC(CCC(C)CO)C1(C)C (stereo not shown) [Brahmanol®]			significant dose-dependent activation	≥ 75 µM	
CC1=CCC(CCC(C)C(C)O)C1(C)C (stereo not shown) [Sandalore®]			significant dose-dependent activation	≥ 25 µM	33%
